Measurements from PubChem BioAssay AID1745844 (Carcinogenic Potency Database (CPDB), 2022).
Active and inactive are the calls of the source. How the calls were made is not given here.

System: rodent lifetime carcinogenesis bioassay, tumor incidence TD50
Experiment: chronic cancer bioassays in animals – CPDB, compiled studies (AID 1745844)

CCOP(=S)(OCC)SC1OCCOC1SP(=S)(OCC)OCC (stereo not given)
TD50 (mouse, strain B6C3F1, females, in feed, site: any site (literature study), lesion: several types, types named in the paper, dosed 78 weeks, study length 90 weeks): 2590 mg/kg/day (inactive) | TD50 (mouse, strain B6C3F1, females, in feed, site: lung, lesion: alveolar/bronchiolar adenoma + alveolar/bronchiolar carcinoma, dosed 78 weeks, study length 90 weeks): 1820 mg/kg/day | carcinogen call (mouse, strain B6C3F1, males, in feed, site: any site (literature study), lesion: several types, types named in the paper, dosed 78 weeks, study length 90 weeks): negative (inactive) | TD50 (mouse, strain B6C3F1, males, in feed, site: lung, lesion: alveolar/bronchiolar adenoma + alveolar/bronchiolar carcinoma, dosed 78 weeks, study length 90 weeks): 628 mg/kg/day | carcinogen call (rat, strain Osborne-Mendel, females, in feed, site: any site (literature study), lesion: several types, types named in the paper, dosed 78 weeks, study length 111 weeks): negative (inactive) | carcinogen call (rat, strain Osborne-Mendel, males, in feed, site: any site (literature study), lesion: several types, types named in the paper, dosed 78 weeks, study length 111 weeks): negative (inactive)

N[C@@H](CCC(=O)NNc1ccc(CO)cc1)C(=O)O
TD50 (mouse, strain Swiss albino, females, in drinking water, site: liver, lesion: angiosarcoma, dosed 121 weeks, study length 121 weeks): 2720 mg/kg/day | TD50 (mouse, strain Swiss albino, females, in drinking water, site: lung, lesion: adenoma, dosed 121 weeks, study length 121 weeks): 3290 mg/kg/day | carcinogen call (mouse, strain Swiss albino, females, in drinking water, site: lung, lesion: several types, types named in the paper, dosed 121 weeks, study length 121 weeks): negative (inactive) | TD50 (mouse, strain Swiss albino, males, in drinking water, site: liver, lesion: angiosarcoma, dosed 120 weeks, study length 120 weeks): 2040 mg/kg/day | TD50 (mouse, strain Swiss albino, males, in drinking water, site: liver, lesion: hepatoma, dosed 120 weeks, study length 120 weeks): 3310 mg/kg/day (inactive) | carcinogen call (mouse, strain Swiss albino, males, in drinking water, site: lung, lesion: several types, types named in the paper, dosed 120 weeks, study length 120 weeks): negative (inactive)

CC(C)C/C=N/N(C)C=O
TD50 (mouse, strain Swiss albino, females, by gavage, site: gall bladder, lesion: adenocarcinoma, dosed 53 weeks, study length 127 weeks): 151 mg/kg/day | TD50 (mouse, strain Swiss albino, females, by gavage, site: gall bladder, lesion: adenoma, dosed 53 weeks, study length 127 weeks): 36.5 mg/kg/day | TD50 (mouse, strain Swiss albino, females, by gavage, site: gall bladder, lesion: several types, types named in the paper, dosed 53 weeks, study length 127 weeks): 28.9 mg/kg/day | TD50 (mouse, strain Swiss albino, females, by gavage, site: liver, lesion: hepatocellular carcinoma, dosed 53 weeks, study length 127 weeks): 74.6 mg/kg/day | TD50 (mouse, strain Swiss albino, females, by gavage, site: liver, lesion: hepatoma, dosed 53 weeks, study length 127 weeks): 9.27 mg/kg/day | TD50 (mouse, strain Swiss albino, females, by gavage, site: liver, lesion: several types, types named in the paper, dosed 53 weeks, study length 127 weeks): 7.9 mg/kg/day | TD50 (mouse, strain Swiss albino, females, by gavage, site: lung, lesion: adenocarcinoma, dosed 53 weeks, study length 127 weeks): 8.7 mg/kg/day | TD50 (mouse, strain Swiss albino, females, by gavage, site: lung, lesion: adenoma, dosed 53 weeks, study length 127 weeks): 2.39 mg/kg/day | TD50 (mouse, strain Swiss albino, females, by gavage, site: lung, lesion: several types, types named in the paper, dosed 53 weeks, study length 127 weeks): 1.99 mg/kg/day | TD50 (mouse, strain Swiss albino, males, by gavage, site: gall bladder, lesion: adenoma, dosed 53 weeks, study length 119 weeks): 46.1 mg/kg/day | TD50 (mouse, strain Swiss albino, males, by gavage, site: liver, lesion: hepatocellular carcinoma, dosed 53 weeks, study length 119 weeks): 34.2 mg/kg/day | TD50 (mouse, strain Swiss albino, males, by gavage, site: liver, lesion: hepatoma, dosed 53 weeks, study length 119 weeks): 8 mg/kg/day | TD50 (mouse, strain Swiss albino, males, by gavage, site: liver, lesion: several types, types named in the paper, dosed 53 weeks, study length 119 weeks): 5.97 mg/kg/day | TD50 (mouse, strain Swiss albino, males, by gavage, site: lung, lesion: adenocarcinoma, dosed 53 weeks, study length 119 weeks): 10.7 mg/kg/day | TD50 (mouse, strain Swiss albino, males, by gavage, site: lung, lesion: adenoma, dosed 53 weeks, study length 119 weeks): 3.3 mg/kg/day | TD50 (mouse, strain Swiss albino, males, by gavage, site: lung, lesion: several types, types named in the paper, dosed 53 weeks, study length 119 weeks): 2.53 mg/kg/day | TD50 (mouse, strain Swiss albino, males, by gavage, site: preputial gland, lesion: several types, types named in the paper, dosed 53 weeks, study length 119 weeks): 4.36 mg/kg/day | TD50 (mouse, strain Swiss albino, males, by gavage, site: preputial gland, lesion: squamous-cell carcinoma, dosed 53 weeks, study length 119 weeks): 5.59 mg/kg/day | TD50 (mouse, strain Swiss albino, males, by gavage, site: preputial gland, lesion: squamous-cell papilloma, dosed 53 weeks, study length 119 weeks): 34.2 mg/kg/day

Cc1ccc(-c2cc(C(F)(F)F)nn2-c2ccc(S(N)(=O)=O)cc2)cc1
carcinogen call (rat, strain Fischer 344, males, in feed, site: colon, lesion: one or several types, types not named, dosed 53 weeks, study length 53 weeks): negative (inactive)

O=S(=O)(O)c1c(N=Nc2c(O)ccc3ccccc23)ccc2ccccc12
carcinogen call (rat, strain Osborne-Mendel, females, in feed, site: liver, lesion: adenoma, dosed 105 weeks, study length 105 weeks): negative (inactive) | TD50 (rat, strain Osborne-Mendel, females, in feed, site: pituitary gland, lesion: adenoma, dosed 105 weeks, study length 105 weeks): 3560 mg/kg/day (inactive) | carcinogen call (rat, strain Osborne-Mendel, males, in feed, site: liver, lesion: hepatocellular adenoma, dosed 105 weeks, study length 105 weeks): negative (inactive)

Cc1ccc2c(c1[N+](=O)[O-])C(=O)c1ccccc1C2=O
TD50 (mouse, strain B6C3F1, females, in feed, site: any site (literature study), lesion: several types, types named in the paper, dosed 49 weeks, study length 49 weeks): 1.76 mg/kg/day | TD50 (mouse, strain B6C3F1, females, in feed, site: lung, lesion: alveolar/bronchiolar adenoma + alveolar/bronchiolar carcinoma, dosed 49 weeks, study length 49 weeks): 97.3 mg/kg/day | TD50 (mouse, strain B6C3F1, females, in feed, site: subcutaneous tissue, lesion: hemangiosarcoma, dosed 49 weeks, study length 49 weeks): 1.88 mg/kg/day | TD50 (mouse, strain B6C3F1, males, in feed, site: any site (literature study), lesion: several types, types named in the paper, dosed 46 weeks, study length 46 weeks): 1.02 mg/kg/day | TD50 (mouse, strain B6C3F1, males, in feed, site: lung, lesion: alveolar/bronchiolar adenoma + alveolar/bronchiolar carcinoma, dosed 46 weeks, study length 46 weeks): 45.5 mg/kg/day | TD50 (mouse, strain B6C3F1, males, in feed, site: subcutaneous tissue, lesion: hemangiosarcoma, dosed 46 weeks, study length 46 weeks): 1.34 mg/kg/day | TD50 (rat, strain Fischer 344, females, in feed, site: any site (literature study), lesion: several types, types named in the paper, dosed 78 weeks, study length 109 weeks): 47.1 mg/kg/day | TD50 (rat, strain Fischer 344, females, in feed, site: liver, lesion: hepatocellular adenoma + hepatocellular carcinoma + neoplastic nodule, dosed 78 weeks, study length 109 weeks): 324 mg/kg/day | TD50 (rat, strain Fischer 344, females, in feed, site: liver, lesion: hepatocellular carcinoma + neoplastic nodule, dosed 78 weeks, study length 109 weeks): 324 mg/kg/day | TD50 (rat, strain Fischer 344, females, in feed, site: liver, lesion: hepatocellular carcinoma, dosed 78 weeks, study length 109 weeks): 547 mg/kg/day | TD50 (rat, strain Fischer 344, females, in feed, site: pituitary gland, lesion: adenoma, dosed 78 weeks, study length 109 weeks): 63.4 mg/kg/day | TD50 (rat, strain Fischer 344, females, in feed, site: stomach, lesion: squamous-cell carcinoma, dosed 78 weeks, study length 109 weeks): 507 mg/kg/day | TD50 (rat, strain Fischer 344, females, in feed, site: subcutaneous tissue, lesion: fibroma, dosed 78 weeks, study length 109 weeks): 131 mg/kg/day | TD50 (rat, strain Fischer 344, females, in feed, site: urinary bladder, lesion: papilloma, NOS + sarcoma, NOS + transitional-cell papilloma, dosed 78 weeks, study length 109 weeks): 224 mg/kg/day | TD50 (rat, strain Fischer 344, males, in feed, site: any site (literature study), lesion: several types, types named in the paper, dosed 78 weeks, study length 109 weeks): 31.9 mg/kg/day | TD50 (rat, strain Fischer 344, males, in feed, site: liver, lesion: hepatocellular adenoma + hepatocellular carcinoma + neoplastic nodule, dosed 78 weeks, study length 109 weeks): 48.8 mg/kg/day | TD50 (rat, strain Fischer 344, males, in feed, site: liver, lesion: hepatocellular carcinoma + neoplastic nodule, dosed 78 weeks, study length 109 weeks): 48.8 mg/kg/day | TD50 (rat, strain Fischer 344, males, in feed, site: liver, lesion: hepatocellular carcinoma, dosed 78 weeks, study length 109 weeks): 89.2 mg/kg/day | TD50 (rat, strain Fischer 344, males, in feed, site: liver, lesion: neoplastic nodule, dosed 78 weeks, study length 109 weeks): 133 mg/kg/day | TD50 (rat, strain Fischer 344, males, in feed, site: subcutaneous tissue, lesion: fibroma, dosed 78 weeks, study length 109 weeks): 25.8 mg/kg/day

CC1=C(/C=C/C(C)=C/C=C/C(C)=C/C(=O)O)C(C)(C)CCC1
carcinogen call (rat, strain Sprague-Dawley, females, i.p., site: any site (literature study), lesion: malignant tumor, dosed 104 weeks, study length 104 weeks): negative (inactive) | TD50 (rat, strain Sprague-Dawley, males, i.p., site: any site (literature study), lesion: malignant tumor, dosed 104 weeks, study length 104 weeks): 188 mg/kg/day (inactive)

CCn1c2ccccc2c2cc(N)ccc21
TD50 (mouse, strain B6C3F1, females, in feed, site: any site (literature study), lesion: several types, types named in the paper, dosed 78 weeks, study length 95 weeks): 41.8 mg/kg/day | TD50 (mouse, strain B6C3F1, females, in feed, site: liver, lesion: hepatocellular adenoma + hepatocellular carcinoma + neoplastic nodule, dosed 78 weeks, study length 95 weeks): 33 mg/kg/day | TD50 (mouse, strain B6C3F1, females, in feed, site: liver, lesion: hepatocellular carcinoma, dosed 78 weeks, study length 95 weeks): 33 mg/kg/day | TD50 (mouse, strain B6C3F1, females, in feed, site: lung, lesion: alveolar/bronchiolar adenoma + alveolar/bronchiolar carcinoma, dosed 78 weeks, study length 95 weeks): 1780 mg/kg/day | TD50 (mouse, strain B6C3F1, males, in feed, site: any site (literature study), lesion: several types, types named in the paper, dosed 78 weeks, study length 95 weeks): 70.6 mg/kg/day | TD50 (mouse, strain B6C3F1, males, in feed, site: liver, lesion: hepatocellular adenoma + hepatocellular carcinoma + neoplastic nodule, dosed 78 weeks, study length 95 weeks): 49.8 mg/kg/day | TD50 (mouse, strain B6C3F1, males, in feed, site: liver, lesion: hepatocellular adenoma + hepatocellular carcinoma, dosed 78 weeks, study length 95 weeks): 49.8 mg/kg/day | TD50 (mouse, strain B6C3F1, males, in feed, site: liver, lesion: hepatocellular carcinoma, dosed 78 weeks, study length 95 weeks): 46.4 mg/kg/day | TD50 (rat, strain Fischer 344, females, in feed, site: Zymbal's gland, lesion: carcinoma, NOS + squamous-cell carcinoma, dosed 78 weeks, study length 107 weeks): 151 mg/kg/day | TD50 (rat, strain Fischer 344, females, in feed, site: Zymbal's gland, lesion: squamous-cell carcinoma, dosed 78 weeks, study length 107 weeks): 212 mg/kg/day | TD50 (rat, strain Fischer 344, females, in feed, site: any site (literature study), lesion: several types, types named in the paper, dosed 78 weeks, study length 107 weeks): 44.7 mg/kg/day | TD50 (rat, strain Fischer 344, females, in feed, site: liver + uterus + Zymbal's gland, lesion: hepatocellular carcinoma + neoplastic nodule + adenocarcinoma, NOS + carcinoma, NOS + squamous-cell carcinoma, dosed 78 weeks, study length 107 weeks): 55.1 mg/kg/day | TD50 (rat, strain Fischer 344, females, in feed, site: liver, lesion: hepatocellular adenoma + hepatocellular carcinoma + neoplastic nodule, dosed 78 weeks, study length 107 weeks): 237 mg/kg/day | TD50 (rat, strain Fischer 344, females, in feed, site: liver, lesion: hepatocellular carcinoma + neoplastic nodule, dosed 78 weeks, study length 107 weeks): 237 mg/kg/day | TD50 (rat, strain Fischer 344, females, in feed, site: uterus, lesion: adenocarcinoma, NOS, dosed 78 weeks, study length 107 weeks): 106 mg/kg/day | TD50 (rat, strain Fischer 344, males, in feed, site: Zymbal's gland, lesion: carcinoma, NOS + squamous-cell carcinoma, dosed 78 weeks, study length 106 weeks): 240 mg/kg/day | TD50 (rat, strain Fischer 344, males, in feed, site: any site (literature study), lesion: several types, types named in the paper, dosed 78 weeks, study length 106 weeks): 42.7 mg/kg/day | TD50 (rat, strain Fischer 344, males, in feed, site: liver + skin + subcutaneous tissue + Zymbal's gland, lesion: hepatocellular carcinoma + neoplastic nodule + basal-cell carcinoma + squamous-cell carcinoma + squamous-cell papilloma + carcinom, dosed 78 weeks, study length 106 weeks): 28.1 mg/kg/day | TD50 (rat, strain Fischer 344, males, in feed, site: liver, lesion: hepatocellular adenoma + hepatocellular carcinoma + neoplastic nodule, dosed 78 weeks, study length 106 weeks): 39.2 mg/kg/day | TD50 (rat, strain Fischer 344, males, in feed, site: liver, lesion: hepatocellular carcinoma + neoplastic nodule, dosed 78 weeks, study length 106 weeks): 39.2 mg/kg/day | TD50 (rat, strain Fischer 344, males, in feed, site: liver, lesion: hepatocellular carcinoma, dosed 78 weeks, study length 106 weeks): 156 mg/kg/day | TD50 (rat, strain Fischer 344, males, in feed, site: skin + subcutaneous tissue, lesion: basal-cell carcinoma + squamous-cell carcinoma + squamous-cell papilloma, dosed 78 weeks, study length 106 weeks): 203 mg/kg/day | TD50 (rat, strain Fischer 344, males, in feed, site: skin + subcutaneous tissue, lesion: squamous-cell carcinoma + squamous-cell papilloma, dosed 78 weeks, study length 106 weeks): 257 mg/kg/day
